The values that follow come from publication PMC6053381, “Novel 2-phenyloxypyrimidine derivative induces apoptosis and autophagy via inhibiting PI3K pathway and activating MAPK/ERK signaling in hepatocellular carcinoma cells” (Scientific Reports, 2018).

One may read the IC50 as the midpoint of a concentration-inhibition curve. As a reminder, the inhibition is the drop in the measured response relative to a control, in per cent.

Experiment [1] relates to Bel7404 cells. Put plainly: MTT cell viability assay. Format: cell-based. To be noted: Homo sapiens. How it is done:
(§1) To reconfirm the biological activity, we chose the most sensitive cell line Bel7404 from cellular assay and the widely used and the most characterized cell line HepG2 to examine the effects of E5 on cell proliferation by MTT assay. […] Given that cell cycle arrest plays a significant role in inhibiting cancer cell growth, we subsequently examined the effects of E5 on cell cycle distribution of Bel7404 and HepG2 cells.
(§2) Cell viability was measured by methyl thiazolyl tetrazolium (MTT) assay. Cells were seeded in 96-well plate at a density of 1 × 10^4 cells/well. After overnight incubation, solution of E5 in DMSO with incremental concentrations (0–30 μM) were added to the cells and further incubated for 3 days. During this period, three wells were selected from each group of cells every day for the MTT (50 μg/well) assay. After the cells had been incubated at 37 °C for 4 h, the reaction was stopped by adding 150 μL/well of DMSO, and incubating for 10 min. The absorbance was measured at a wavelength of 490 nm by a Microplate Reader (BioTek, USA).
In general terms: Tetrazolium assays rely on reduction of a dye to a coloured formazan, in cell work by metabolically active cells.

Experiment [2] relates to HepG2 cells. Put plainly: MTT cell viability assay. Format: cell-based. The following applies: Homo sapiens. How it is done:
as §1, §2

The subject of a further experiment is MHCC97-L. Briefly: CellTiter-Glo luminescent cell viability assay. The format is cell-based. To be noted: MHCC97L, 120 h incubation, read-out: Anti-proliferative activity IC50 MHCC97-L. An outline of the steps: (§3)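 Cells were plated (4000 per well), incubated overnight, and treated with compounds across a concentration range for 120 h. ATP-based CellTiter-Glo luminescence was then recorded. IC50 was calculated by log concentration–response regression, averaged over two experiments.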
A general note: Cellular ATP, detected with luciferase, serves as a proxy for viable cell number.

Another experiment deals with BEL7404. Briefly: CellTiter-Glo luminescent cell viability assay. Format: cell-based. To be noted: Homo sapiens, BEL-7404, 120 h incubation, read-out: Anti-proliferative activity IC50 BEL7404. An outline of the steps:
as §3

In a further experiment the test system is SNU368. Put plainly: CellTiter-Glo luminescent cell viability assay. Format: cell-based. The following applies: 120 h incubation, read-out: Anti-proliferative activity IC50 SNU368. The method in brief:
as §3

The next experiment deals with QGY-7703. Briefly: CellTiter-Glo luminescent cell viability assay. To be noted: Homo sapiens, QGY-7703, 120 h incubation, read-out: Anti-proliferative activity IC50 QGY-7703. Format: cell-based. An outline of the steps: as §3
Another experiment concerns Hep3B. Put plainly: CellTiter-Glo luminescent cell viability assay. The format is cell-based. To be noted: Homo sapiens, Hep3B, 120 h incubation, read-out: Anti-proliferative activity IC50 Hep3B. The method in brief:
as §3

The test system of another experiment is SMMC-7721. Put plainly: CellTiter-Glo luminescent cell viability assay. Format: cell-based. The following applies: Homo sapiens, SMMC-7721, 120 h incubation, read-out: Anti-proliferative activity IC50 SMMC-7721. An outline of the steps:
as §3

Experiment [3] has as its system Bel7404 cells. Put plainly: Colony formation assay. The format is cell-based. To be noted: 0–20 μM, 24 h treatment, two weeks culture. The method, then: (§4) Cells (300/well) were seeded in 24-well plates and incubated overnight in a humidified atmosphere of 5% CO2 at 37 °C. Incremental concentrations of E5 (0–20 μM) were then added, and the medium was replaced with fresh culture medium containing 10% FBS after 24 h. After two weeks of culture, colonies were fixed with methanol, stained with 1% crystal violet and colonies containing more than 50 cells were counted.

Experiment [4] relates to HepG2 cells. Briefly: Colony formation assay. The format is cell-based. The following applies: 0–20 μM, 24 h treatment, two weeks culture. How it is done:
as §4

The next experiment concerns the target PDGFRβ (Homo sapiens, UniProt P09619). Briefly: PDGFR kinase assay, Caliper microfluidic mobility shift. Format: biochemical. The following applies: averages of two separate experiments.
The next experiment concerns the target PDGFRα (Homo sapiens, UniProt P16234). Described as above. Format: biochemical.

SMILES strings stand for the structures.

PDGFRβ, sequence (P09619 33-1106): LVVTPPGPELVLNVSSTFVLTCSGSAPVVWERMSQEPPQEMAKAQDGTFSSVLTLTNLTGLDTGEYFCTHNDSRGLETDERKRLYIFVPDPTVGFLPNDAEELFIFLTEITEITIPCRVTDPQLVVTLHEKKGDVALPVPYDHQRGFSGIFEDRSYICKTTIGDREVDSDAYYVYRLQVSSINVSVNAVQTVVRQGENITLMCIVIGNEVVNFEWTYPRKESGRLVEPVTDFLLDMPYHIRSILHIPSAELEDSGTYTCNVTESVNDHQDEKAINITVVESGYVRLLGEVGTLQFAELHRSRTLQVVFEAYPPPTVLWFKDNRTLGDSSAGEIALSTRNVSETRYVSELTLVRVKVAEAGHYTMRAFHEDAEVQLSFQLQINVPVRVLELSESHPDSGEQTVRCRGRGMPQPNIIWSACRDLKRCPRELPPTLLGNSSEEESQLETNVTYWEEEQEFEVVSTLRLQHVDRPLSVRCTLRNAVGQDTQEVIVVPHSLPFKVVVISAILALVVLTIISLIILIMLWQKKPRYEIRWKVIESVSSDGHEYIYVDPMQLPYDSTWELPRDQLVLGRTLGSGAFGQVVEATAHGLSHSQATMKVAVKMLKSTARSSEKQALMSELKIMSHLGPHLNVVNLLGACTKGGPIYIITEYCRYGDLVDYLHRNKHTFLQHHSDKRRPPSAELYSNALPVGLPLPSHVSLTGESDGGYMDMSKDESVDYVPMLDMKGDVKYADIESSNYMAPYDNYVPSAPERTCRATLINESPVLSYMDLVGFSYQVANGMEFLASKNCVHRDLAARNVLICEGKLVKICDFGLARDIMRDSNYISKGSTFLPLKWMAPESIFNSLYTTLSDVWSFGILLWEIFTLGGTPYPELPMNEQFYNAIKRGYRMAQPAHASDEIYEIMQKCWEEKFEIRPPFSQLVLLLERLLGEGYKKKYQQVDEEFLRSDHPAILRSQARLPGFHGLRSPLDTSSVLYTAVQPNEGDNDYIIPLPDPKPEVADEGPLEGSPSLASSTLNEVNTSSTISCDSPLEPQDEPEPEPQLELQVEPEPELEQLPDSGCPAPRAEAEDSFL
PDGFRα, sequence (P16234 24-1089): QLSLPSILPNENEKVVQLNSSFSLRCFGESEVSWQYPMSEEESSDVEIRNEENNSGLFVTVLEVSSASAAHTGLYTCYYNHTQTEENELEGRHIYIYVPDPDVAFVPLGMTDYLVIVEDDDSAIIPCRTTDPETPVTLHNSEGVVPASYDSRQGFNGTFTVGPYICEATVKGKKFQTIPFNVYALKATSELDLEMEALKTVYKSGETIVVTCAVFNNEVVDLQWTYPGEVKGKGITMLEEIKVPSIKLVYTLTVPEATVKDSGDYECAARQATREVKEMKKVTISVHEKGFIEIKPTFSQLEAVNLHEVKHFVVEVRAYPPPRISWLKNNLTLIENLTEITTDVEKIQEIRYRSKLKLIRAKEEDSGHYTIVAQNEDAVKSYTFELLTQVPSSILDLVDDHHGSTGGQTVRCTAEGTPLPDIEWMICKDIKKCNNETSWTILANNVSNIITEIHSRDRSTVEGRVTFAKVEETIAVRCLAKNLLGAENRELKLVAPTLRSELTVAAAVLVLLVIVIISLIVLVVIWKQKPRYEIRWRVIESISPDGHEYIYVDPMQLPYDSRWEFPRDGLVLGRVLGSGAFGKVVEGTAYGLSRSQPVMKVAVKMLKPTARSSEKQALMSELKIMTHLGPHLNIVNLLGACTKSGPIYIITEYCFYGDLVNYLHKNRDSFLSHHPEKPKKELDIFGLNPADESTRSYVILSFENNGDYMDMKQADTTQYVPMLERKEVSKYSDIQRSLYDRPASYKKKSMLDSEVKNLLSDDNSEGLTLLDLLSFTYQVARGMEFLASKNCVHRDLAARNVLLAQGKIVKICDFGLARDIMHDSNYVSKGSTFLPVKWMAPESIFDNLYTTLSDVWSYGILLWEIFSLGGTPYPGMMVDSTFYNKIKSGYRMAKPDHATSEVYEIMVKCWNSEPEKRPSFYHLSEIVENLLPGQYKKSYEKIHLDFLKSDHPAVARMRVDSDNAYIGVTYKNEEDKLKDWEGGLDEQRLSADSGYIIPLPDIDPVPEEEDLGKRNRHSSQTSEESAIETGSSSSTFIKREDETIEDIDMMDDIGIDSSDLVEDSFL

Turning to `Cc1ccc(NC(=O)c2ccc(CN3CCN(C)CC3)cc2)cc1Oc1nccc(-c2cc3ccccc3o2)n1` [E5, N-(3-((4-(benzofuran-2-yl)pyrimidin-2-yl)oxy)-4-methylphenyl)-4-((4-methylpiperazin-1-yl)methyl)benzamide], the IC50 in the experiment on Bel7404 cells [1] (BEL-7404, 24 h) amounted to 18.2 ± 2.38 µM; with Bel7404 cells [1] (BEL-7404, 48 h), 9.68 ± 1.46 µM; in the experiment on Bel7404 cells [1] (BEL-7404, 72 h) it was 6.62 ± 0.15 µM; in the experiment on HepG2 cells [2] (HepG2, 24 h, 24 h) it was 8.49 ± 0.82 µM; with HepG2 cells [2] (HepG2, 48 h, 48 h) it was 5.44 ± 0.23 µM; with HepG2 cells [2] (HepG2, 72 h, 72 h), 4.72 ± 0.96 µM. The IC50 came to 10 µM in the experiment on MHCC97-L; 0.8 µM with BEL7404; 8.9 µM in the experiment with SNU368; 15.1 µM in the experiment on QGY-7703; 2.6 µM in the experiment on Hep3B; 1 µM in the experiment on SMMC-7721. Moreover, the values for the half-maximal inhibitory concentration (IC50) at PDGFRβ and at PDGFRα (averages of two separate experiments) were 0.93 µM and 0.4 µM, respectively. Further, the Effect on clonogenicity result with Bel7404 cells [3] and in the experiment on HepG2 cells [4] was “significantly inhibited the clonogenicity” each time. The “IC50 PDGFRβ” value on PDGFRβ is “moderate inhibitory activity”. Also, the inhibition at 1 µM is more than 50% at PDGFRβ (compound at 1 µM, read-out: Inhibition effect (%) PDGFRβ) and more than 85% at PDGFRα (compound at 1 µM, averages of two separate experiments, read-out: Inhibition effect (%) PDGFRα). Also, on PDGFRα (IC50 (PDGFRβ)/ IC50 (PDGFRα)), the Selectivity index is reported as 2.32.
